Read-outs that look alike come from different tables or passages of the source.
Key:
PI3Kδ kinase = PI3Kδ kinase (Homo sapiens (Human), UniProt O00329); experiment: PI3Kδ kinase ADP-Glo assay (Reaction Biology Corporation); conditions: read-out: PI3Kδ IC50
FMS kinase = FMS kinase (Homo sapiens (Human), UniProt P07333); experiment: LanthaScreen kinase assay (ATP, fluorescent-PolyGT substrate, TR-FRET); format: biochemical
CDK4 = CDK4 (Homo sapiens (Human), UniProt P11802); experiment: In vitro kinase inhibition, luminescence (ADP-Glo) with retinoblastoma substrate; format: biochemical
MCF-7 = experiment: Cancer cell proliferation assay, single agent; format: cell-based; conditions: Homo sapiens, MCF7; MCF-7 cells; treated for 24-168 hours; read-out: IC50 (nM) MCF-7
CDK6 = CDK6 (Homo sapiens (Human), UniProt Q00534); experiment: biochemical; format: biochemical
DU4475 = experiment: Cancer cell proliferation assay, single agent; format: cell-based; conditions: Homo sapiens
[1] = DU-4475, DU4475 cells, treated for 24-168 hours, read-out: IC50 (nM) DU4475

CDK4, sequence (P11802 whole entry): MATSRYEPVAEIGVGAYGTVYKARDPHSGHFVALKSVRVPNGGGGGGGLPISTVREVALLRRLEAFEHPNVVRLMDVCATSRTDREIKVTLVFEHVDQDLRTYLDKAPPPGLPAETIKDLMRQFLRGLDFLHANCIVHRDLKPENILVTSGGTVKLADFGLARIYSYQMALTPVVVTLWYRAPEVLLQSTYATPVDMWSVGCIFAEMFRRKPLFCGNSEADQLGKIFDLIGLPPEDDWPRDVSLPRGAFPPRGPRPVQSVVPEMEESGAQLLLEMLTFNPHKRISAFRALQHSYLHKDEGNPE
CDK4, sequence (P24385 whole entry partner): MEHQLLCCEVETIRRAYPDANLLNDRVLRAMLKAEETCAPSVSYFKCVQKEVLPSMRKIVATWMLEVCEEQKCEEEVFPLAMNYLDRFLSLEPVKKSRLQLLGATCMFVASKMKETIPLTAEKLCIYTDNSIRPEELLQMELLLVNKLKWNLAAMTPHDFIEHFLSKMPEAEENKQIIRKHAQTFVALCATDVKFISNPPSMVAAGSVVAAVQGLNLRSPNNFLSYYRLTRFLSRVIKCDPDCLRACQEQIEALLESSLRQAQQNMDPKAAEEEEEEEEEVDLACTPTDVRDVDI
PI3Kδ kinase, sequence (O00329 whole entry): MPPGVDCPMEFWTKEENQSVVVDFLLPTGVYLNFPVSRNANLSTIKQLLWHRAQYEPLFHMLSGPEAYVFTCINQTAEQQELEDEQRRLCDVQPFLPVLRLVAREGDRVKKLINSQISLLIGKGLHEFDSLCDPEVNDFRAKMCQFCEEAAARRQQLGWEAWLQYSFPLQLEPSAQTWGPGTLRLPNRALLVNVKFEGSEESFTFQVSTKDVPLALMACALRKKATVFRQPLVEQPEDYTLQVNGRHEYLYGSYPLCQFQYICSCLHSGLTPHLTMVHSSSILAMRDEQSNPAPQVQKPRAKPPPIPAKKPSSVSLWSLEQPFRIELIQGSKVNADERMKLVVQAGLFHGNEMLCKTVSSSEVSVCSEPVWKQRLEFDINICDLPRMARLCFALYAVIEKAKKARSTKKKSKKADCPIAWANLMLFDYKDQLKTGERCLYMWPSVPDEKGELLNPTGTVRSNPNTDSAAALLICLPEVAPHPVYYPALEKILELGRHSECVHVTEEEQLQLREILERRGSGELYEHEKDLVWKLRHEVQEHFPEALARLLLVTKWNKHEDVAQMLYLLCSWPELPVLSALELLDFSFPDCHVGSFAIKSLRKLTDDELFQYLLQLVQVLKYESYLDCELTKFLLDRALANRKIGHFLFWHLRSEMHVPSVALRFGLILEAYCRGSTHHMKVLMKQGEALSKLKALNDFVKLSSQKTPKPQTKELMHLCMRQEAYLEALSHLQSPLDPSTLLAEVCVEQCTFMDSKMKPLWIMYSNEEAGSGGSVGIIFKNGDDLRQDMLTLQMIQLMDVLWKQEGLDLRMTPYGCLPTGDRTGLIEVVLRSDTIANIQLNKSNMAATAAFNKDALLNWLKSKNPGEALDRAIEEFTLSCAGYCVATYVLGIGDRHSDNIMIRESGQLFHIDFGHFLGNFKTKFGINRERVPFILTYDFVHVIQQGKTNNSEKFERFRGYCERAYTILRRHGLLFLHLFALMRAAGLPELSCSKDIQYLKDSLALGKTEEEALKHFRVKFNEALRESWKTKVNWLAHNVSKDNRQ
PI3Kδ kinase, sequence (P27986 whole entry partner): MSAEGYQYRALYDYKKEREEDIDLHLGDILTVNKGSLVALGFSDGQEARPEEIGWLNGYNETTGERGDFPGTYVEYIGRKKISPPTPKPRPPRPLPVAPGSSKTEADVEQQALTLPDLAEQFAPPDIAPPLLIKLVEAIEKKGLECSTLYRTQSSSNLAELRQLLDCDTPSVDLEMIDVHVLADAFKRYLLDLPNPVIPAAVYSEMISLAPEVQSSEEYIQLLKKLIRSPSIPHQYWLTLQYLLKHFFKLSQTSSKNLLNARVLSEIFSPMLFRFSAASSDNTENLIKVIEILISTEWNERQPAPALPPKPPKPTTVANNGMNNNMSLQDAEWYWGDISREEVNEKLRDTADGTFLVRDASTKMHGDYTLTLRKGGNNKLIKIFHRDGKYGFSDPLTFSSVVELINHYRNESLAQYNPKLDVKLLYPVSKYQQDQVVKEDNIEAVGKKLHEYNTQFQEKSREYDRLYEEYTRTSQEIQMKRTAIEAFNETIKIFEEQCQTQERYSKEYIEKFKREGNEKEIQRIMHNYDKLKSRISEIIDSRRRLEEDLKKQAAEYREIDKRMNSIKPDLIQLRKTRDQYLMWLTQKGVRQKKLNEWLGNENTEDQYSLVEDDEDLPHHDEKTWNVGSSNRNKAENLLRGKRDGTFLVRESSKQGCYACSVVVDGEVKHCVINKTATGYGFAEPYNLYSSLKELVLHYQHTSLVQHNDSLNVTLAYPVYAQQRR
FMS kinase, sequence (P07333 20-972): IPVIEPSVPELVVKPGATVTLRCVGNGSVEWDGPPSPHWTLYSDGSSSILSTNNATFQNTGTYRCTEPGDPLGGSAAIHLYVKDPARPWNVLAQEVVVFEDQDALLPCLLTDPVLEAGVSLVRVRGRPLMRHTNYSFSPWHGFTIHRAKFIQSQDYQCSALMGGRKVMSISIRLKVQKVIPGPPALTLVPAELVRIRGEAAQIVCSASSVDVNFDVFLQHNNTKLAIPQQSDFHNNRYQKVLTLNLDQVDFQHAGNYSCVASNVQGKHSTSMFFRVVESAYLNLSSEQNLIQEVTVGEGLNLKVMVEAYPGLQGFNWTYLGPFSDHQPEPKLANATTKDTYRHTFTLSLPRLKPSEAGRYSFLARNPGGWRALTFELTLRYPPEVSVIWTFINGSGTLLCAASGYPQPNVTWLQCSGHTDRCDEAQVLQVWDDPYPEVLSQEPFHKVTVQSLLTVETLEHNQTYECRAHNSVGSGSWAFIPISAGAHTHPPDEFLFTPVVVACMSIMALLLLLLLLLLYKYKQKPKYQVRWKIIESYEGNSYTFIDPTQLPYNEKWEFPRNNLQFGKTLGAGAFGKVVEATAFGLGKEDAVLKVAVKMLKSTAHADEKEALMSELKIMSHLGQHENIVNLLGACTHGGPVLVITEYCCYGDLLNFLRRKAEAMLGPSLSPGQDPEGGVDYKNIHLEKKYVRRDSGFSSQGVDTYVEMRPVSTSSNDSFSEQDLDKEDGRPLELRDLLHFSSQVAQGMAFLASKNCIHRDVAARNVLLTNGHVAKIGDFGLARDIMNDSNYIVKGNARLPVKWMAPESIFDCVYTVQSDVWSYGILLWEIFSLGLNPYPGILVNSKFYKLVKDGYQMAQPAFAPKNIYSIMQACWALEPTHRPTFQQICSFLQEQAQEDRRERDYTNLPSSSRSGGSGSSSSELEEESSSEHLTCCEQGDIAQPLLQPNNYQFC

Compound | IC50 (PI3Kδ kinase) | IC50 (FMS kinase) | IC50 (CDK4) | IC50 (MCF-7) | IC50 (CDK6) | IC50 (DU4475; [1]) | IC50 (DU4475; DU-4475, read-out: IC50 (nM) DU4475)
CC(C)N1CCOc2c(F)cc(-c3nc(Nc4ccc(N5CCN(C(=O)N(C)C)CC5)cn4)ncc3F)cc21 [Compound 453, 4-(6-((5-fluoro-4-(8-fluoro-4-isopropyl-3,4-dihydro-2H-benzo[b][1,4]oxazin-6-yl)pyrimidin-2-yl)amino)pyridin-3-yl)-N,N-dimethylpiperazine-1-carboxamide] | > 50000 nM | > 5000 nM | 12 nM | 695 nM | 30 nM | – | –
CC(C)N1CCOc2c(F)cc(-c3nc(Nc4ccc(C5CCN(C(=O)N(C)C)CC5)cn4)ncc3F)cc21 [Compound 454, 4-(6-((5-fluoro-4-(8-fluoro-4-isopropyl-3,4-dihydro-2H-benzo[b][1,4]oxazin-6-yl)pyrimidin-2-yl)amino)pyridin-3-yl)-N,N-dimethylpiperidine-1-carboxamide] | > 50000 nM | > 5000 nM | 18 nM | 920 nM | 83 nM | – | –
CC(C)N1CCOc2c(F)cc(-c3nc(Nc4ccc(N5CCN(CCO)CC5)cn4)ncc3F)cc21 [Compound 490, 2-(4-(6-((5-fluoro-4-(8-fluoro-4-isopropyl-3,4-dihydro-2H-benzo[b][1,4]oxazin-6-yl)pyrimidin-2-yl)amino)pyridin-3-yl)piperazin-1-yl)ethan-1-ol] | > 50000 nM | 2120 nM | – | 80 nM | – | – | 420 nM
CC(C)N1CCOc2c(F)cc(-c3nc(Nc4ccc(N5CCN(C(=O)CN(C)C)CC5)cn4)ncc3F)cc21 [Compound 441, 2-(dimethylamino)-1-(4-(6-((5-fluoro-4-(8-fluoro-4-isopropyl-3,4-dihydro-2H-benzo[b][1,4]oxazin-6-yl)pyrimidin-2-yl)amino)pyridin-3-yl)piperazin-1-yl)ethan-1-one] | > 50000 nM | 526 nM | 1 nM | 95 nM | 0.6 nM | – | –
CC(C)N1CCOc2c(F)cc(-c3nc(Nc4ccc(N5CCC(C)(O)CC5)cn4)ncc3F)cc21 [Compound 484, 1-(6-((5-fluoro-4-(8-fluoro-4-isopropyl-3,4-dihydro-2H-benzo[b][1,4]oxazin-6-yl)pyrimidin-2-yl)amino)pyridin-3-yl)-4-methylpiperidin-4-ol] | > 50000 nM | > 5000 nM | – | 1340 nM | – | 2480 nM | –
CC(C)N1CCOc2c(F)cc(-c3nc(Nc4ccc(N5CCC(O)CC5)c(F)c4)ncc3F)cc21 [Compound 445, 1-(2-fluoro-4-((5-fluoro-4-(8-fluoro-4-isopropyl-3,4-dihydro-2H-benzo[b][1,4]oxazin-6-yl)pyrimidin-2-yl)amino)phenyl)piperidin-4-ol] | > 50000 nM | 69 nM | 31 nM | 120 nM | 69 nM | – | –
CC(C)N1CCOc2c(F)cc(-c3nc(Nc4ccc(C5CCN(C(=O)CN(C)C)CC5)cn4)ncc3F)cc21 [Compound 450, 2-(dimethylamino)-1-(4-(6-((5-fluoro-4-(8-fluoro-4-isopropyl-3,4-dihydro-2H-benzo[b][1,4]oxazin-6-yl)pyrimidin-2-yl)amino)pyridin-3-yl)piperidin-1-yl)ethan-1-one] | > 50000 nM | 214 nM | 0.5 nM | 240 nM | 0.3 nM | – | –
CCCN1CCOc2c(F)cc(-c3nc(Nc4ccc(N5CCC(N(C)C)CC5)c(F)c4)ncc3F)cc21 [Compound 468, N-(4-(4-(dimethylamino)piperidin-1-yl)-3-fluorophenyl)-5-fluoro-4-(8-fluoro-4-propyl-3,4-dihydro-2H-benzo[b][1,4]oxazin-6-yl)pyrimidin-2-amine] | 3780 nM | 36 nM | 8 nM | 95 nM | 8 nM | – | –
CC(C)N1CCOc2c(F)cc(-c3nc(Nc4cc5n(n4)CCN(C)C5)ncc3F)cc21 [Compound 444, N-(5-fluoro-4-(8-fluoro-4-isopropyl-3,4-dihydro-2H-benzo[b][1,4]oxazin-6-yl)pyrimidin-2-yl)-5-methyl-4,5,6,7-tetrahydropyrazolo[1,5-a]pyrazin-2-amine] | > 50000 nM | 67 nM | 1.6 nM | 1250 nM | 3.4 nM | – | –
CN1CCOc2c(F)cc(-c3nc(Nc4ccc(N5CCC(N(C)C)CC5)c(F)c4)ncc3F)cc21 [Compound 467, N-(4-(4-(dimethylamino)piperidin-1-yl)-3-fluorophenyl)-5-fluoro-4-(8-fluoro-4-methyl-3,4-dihydro-2H-benzo[b][1,4]oxazin-6-yl)pyrimidin-2-amine] | 2430 nM | 14 nM | 4 nM | 185 nM | 5 nM | – | –
CC(C)N1CCOc2c(F)cc(-c3nc(Nc4ccc(N5CCN(C(=O)CN(C)C)CC5)c(F)c4)ncc3F)cc21 [Compound 449, 2-(dimethylamino)-1-(4-(2-fluoro-4-((5-fluoro-4-(8-fluoro-4-isopropyl-3,4-dihydro-2H-benzo[b][1,4]oxazin-6-yl)pyrimidin-2-yl)amino)phenyl)piperazin-1-yl)ethan-1-one] | 4480 nM | 9.5 nM | 1.1 nM | 50 nM | 0.9 nM | – | –
CC(C)N1CCOc2c(F)cc(-c3nc(Nc4ccc(N5CCN(C(=O)CN(C)C)CC5)cc4)ncc3F)cc21 [Compound 440, 2-(dimethylamino)-1-(4-(4-((5-fluoro-4-(8-fluoro-4-isopropyl-3,4-dihydro-2H-benzo[b][1,4]oxazin-6-yl)pyrimidin-2-yl)amino)phenyl)piperazin-1-yl)ethan-1-one] | 35000 nM | 24 nM | 2 nM | 30 nM | 2 nM | – | –
CC(C)N1CCOc2c(F)cc(-c3nc(Nc4ccc(C5CCN(C(=O)CN(C)C)CC5)c(F)c4)ncc3F)cc21 [Compound 451, 2-(dimethylamino)-1-(4-(2-fluoro-4-((5-fluoro-4-(8-fluoro-4-isopropyl-3,4-dihydro-2H-benzo[b][1,4]oxazin-6-yl)pyrimidin-2-yl)amino)phenyl)piperidin-1-yl)ethan-1-one] | > 50000 nM | 28 nM | 28 nM | 30 nM | 27 nM | – | –
CC(C)N1CCOc2c(F)cc(-c3nc(Nc4cc(F)c(C5CCNCC5)cn4)ncc3F)cc21 [Compound 443, 5-fluoro-4-(8-fluoro-4-isopropyl-3,4-dihydro-2H-benzo[b][1,4]oxazin-6-yl)-N-(4-fluoro-5-(piperidin-4-yl)pyridin-2-yl)pyrimidin-2-amine] | > 50000 nM | 950 nM | 3 nM | 285 nM | 3 nM | – | –

Further lines, with some results ahead:

IC50 (PI3Kδ kinase) | IC50 (FMS kinase) | IC50 (CDK4) | IC50 (MCF-7) | IC50 (CDK6) | IC50 (DU4475; [1]) | Compound | IC50 (DU4475; DU-4475, read-out: IC50 (nM) DU4475)
397 nM | 66 nM | 37 nM | 80 nM | 123 nM | – | CC(C)N1CCOc2c(F)cc(-c3nc(Nc4ccc(N5CCS(=O)(=O)CC5)c(F)c4)ncc3F)cc21 [Compound 465, 4-(2-fluoro-4-((5-fluoro-4-(8-fluoro-4-isopropyl-3,4-dihydro-2H-benzo[b][1,4]oxazin-6-yl)pyrimidin-2-yl)amino)phenyl)thiomorpholine 1,1-dioxide] | –
3170 nM | 7 nM | – | 30 nM | – | 55 nM | CC(C)N1CCOc2c(F)cc(-c3nc(Nc4ccc(N5CCN6CCCC6C5)c(F)c4)ncc3F)cc21 (stereo not drawn) [Compound 473, 5-fluoro-N-(3-fluoro-4-(hexahydropyrrolo[1,2-a]pyrazin-2(1H)-yl)phenyl)-4-(8-fluoro-4-isopropyl-3,4-dihydro-2H-benzo[b][1,4]oxazin-6-yl)pyrimidin-2-amine] | –
1110 nM | 35 nM | 4 nM | 105 nM | 10 nM | – | CN1CCC(c2ccc(Nc3ncc(F)c(-c4cc(F)c5c(c4)N(C)CCO5)n3)cc2F)CC1 [Compound 466, 5-fluoro-N-(3-fluoro-4-(1-methylpiperidin-4-yl)phenyl)-4-(8-fluoro-4-methyl-3,4-dihydro-2H-benzo[b][1,4]oxazin-6-yl)pyrimidin-2-amine] | –
13100 nM | 1.5 nM | 4.5 nM | < 4 nM | 3 nM | – | CC(C)N1CCOc2c(F)cc(-c3nc(Nc4ccc5c(c4)CN(C(=O)CN(C)C)CC5)ncc3F)cc21 [Compound 455, 2-(dimethylamino)-1-(7-((5-fluoro-4-(8-fluoro-4-isopropyl-3,4-dihydro-2H-benzo[b][1,4]oxazin-6-yl)pyrimidin-2-yl)amino)-3,4-dihydroisoquinolin-2(1H)-yl)ethan-1-one] | –
589 nM | 8 nM | 20 nM | 50 nM | 45 nM | – | CC(C)N1CCOc2c(F)cc(-c3nc(Nc4cnn(C5CCC(O)CC5)c4)ncc3F)cc21 (stereo not drawn) [Compound 452, 4-(4-((5-fluoro-4-(8-fluoro-4-isopropyl-3,4-dihydro-2H-benzo[b][1,4]oxazin-6-yl)pyrimidin-2-yl)amino)-1H-pyrazol-1-yl)cyclohexan-1-ol] | –
1160 nM | 776 nM | – | 300 nM | – | 940 nM | CC(=O)N1CCN(c2ccc(Nc3ncc(F)c(-c4cc(F)c5c(c4)N(C(C)C)CCO5)n3)nc2)CC1 [Compound 474, 1-(4-(6-((5-fluoro-4-(8-fluoro-4-isopropyl-3,4-dihydro-2H-benzo[b][1,4]oxazin-6-yl)pyrimidin-2-yl)amino)pyridin-3-yl)piperazin-1-yl)ethan-1-one] | –

Source: patent US11174252B2, “Heterocyclic compounds as kinase inhibitors” (priority 2018, dated 2021)
